The text below walks through data of patent US20240059728A1, “NOVEL GALACTOSIDE INHIBITOR OF GALECTINS” (GALECTO BIOTECH AB, priority 2021, published 2024).

Molecules are shown by their SMILES.

One test deals with Galectin-1 (Homo sapiens (Human), UniProt P09382). The test can be described thus: fluorescence anisotropy assay, galectin-1. The test is classed as binding. The note with it: inhibition of the interaction between galectin and a fluorescein tagged saccharide probe. The protocol: (§1) The affinity of Example 1-14 for galectins were determined by a fluorescence anisotropy assay where the compound was used as an inhibitor of the interaction between galectin and a fluorescein tagged saccharide probe as described Sörme, P., Kahl-Knutsson, B., Huflejt, M., Nilsson, U. J., and Leffler H. (2004) Fluorescence polarization as an analytical tool to evaluate galectin-ligand interactions. Anal. Biochem. 334: 36-47, (Sarme et al., 2004) and Monovalent interactions of Galectin-1 By Salomonsson, Emma; Larumbe, Amaia; Tejler, Johan; Tullberg, Erik; Rydberg, Hanna; Sundin, Anders; Khabut, Areej; Frejd, Torbjorn; Lobsanov, Yuri D.; Rini, James M.; et al, From Biochemistry (2010), 49(44), 9518-9532, (Salomonsson et al., 2010).
Chain of Galectin-1 (P09382 whole entry): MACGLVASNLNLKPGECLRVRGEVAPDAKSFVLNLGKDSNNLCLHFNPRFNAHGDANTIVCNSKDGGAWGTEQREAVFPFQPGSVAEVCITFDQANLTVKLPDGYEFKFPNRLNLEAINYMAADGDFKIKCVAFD
For orientation: Fluorescence polarisation rises when a labelled molecule tumbles more slowly, as on binding a larger partner.

For the next test, the target named is Galectin-3 (Homo sapiens (Human), UniProt P17931). Put plainly: fluorescence anisotropy assay, galectin-3. The test is classed as binding. The note with it: inhibition of the interaction between galectin and a fluorescein tagged saccharide probe. The protocol: as §1
Chain of Galectin-3 (P17931 whole entry): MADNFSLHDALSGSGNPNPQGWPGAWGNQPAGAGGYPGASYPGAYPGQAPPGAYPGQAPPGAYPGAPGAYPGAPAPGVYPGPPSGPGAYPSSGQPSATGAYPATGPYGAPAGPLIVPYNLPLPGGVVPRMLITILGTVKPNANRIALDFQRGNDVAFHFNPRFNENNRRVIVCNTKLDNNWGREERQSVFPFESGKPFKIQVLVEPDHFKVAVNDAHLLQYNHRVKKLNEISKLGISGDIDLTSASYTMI

Take `OCC1O[C@@H](S[C@@H]2O[C@H](CO)C(O)C(n3cc(-c4csc(O)n4)nn3)[C@H]2O)C(O)[C@@H](n2cc(-c3cc(F)c(F)c(F)c3)nn2)[C@H]1O` (stereo partly drawn) [Example 1, 3,3′-Dideoxy-3-[4-(3,4,5-trifluorophenyl)-1H-1,2,3-triazol-1-yl]-3′-[4-(2-hydroxythiazol-4-yl)-1H-1,2,3-triazol-1-yl]-1,1′-sulfanediyl-di-β-D-galactopyranoside]: the equilibrium dissociation constant (Kd) stood at 3 nM at Galectin-1 and 0.4 nM at Galectin-3.

On to `OCC1O[C@@H](S[C@@H]2O[C@H](CO)C(O)C(n3cc(-c4csc(O)n4)nn3)[C@H]2O)C(O)[C@@H](n2cc(-c3cc(F)c(Cl)c(F)c3)nn2)[C@H]1O` (stereo partly drawn) [Example 2, 3-[4-(4-Chloro-3,5-difluorophenyl)-1H-1,2,3-triazol-1-yl]-3,3′-dideoxy-3′-[4-(2-hydroxythiazol-4-yl)-1H-1,2,3-triazol-1-yl]-1,1′-sulfanediyl-di-β-D-galactopyranoside], for which the figures for the Kd at Galectin-1 and on Galectin-3 were 4 nM and 0.3 nM, respectively.

Turning to `Nc1nc(-c2cn(C3C(O)[C@@H](CO)O[C@@H](S[C@@H]4OC(CO)[C@H](O)[C@H](n5cc(-c6cc(F)c(Cl)c(F)c6)nn5)C4O)[C@@H]3O)nn2)cs1` (stereo partly drawn) [Example 3, 3′-[4-(2-Aminothiazol-4-yl)-1H-1,2,3-triazol-1-yl]-3-[4-(4-chloro-3,5-difluorophenyl)-1H-1,2,3-triazol-1-yl]-3,3′-dideoxy-1,1′-sulfanediyl-di-β-D-galactopyranoside], the Kd at Galectin-1 was determined as 9 nM; at Galectin-3 it was 1 nM.

In the case of `OCC1O[C@@H](S[C@@H]2O[C@H](CO)C(O)C(n3cc(-c4ccc(Cl)c(F)c4F)nn3)[C@H]2O)C(O)[C@@H](n2cc(-c3ccc(Cl)c(F)c3F)nn2)[C@H]1O` (stereo partly drawn) [Example 14, 1,1′-Sulfanediyl-bis-{3-[4-(4-chloro-2,3-difluorophenyl)-1H-1,2,3-triazol-1-yl]-3-deoxy-β-D-galactopyranoside}], the Kd on Galectin-1 worked out at 450 nM; at Galectin-3, 12 nM.

The Kd is the concentration at which binding is half-saturated.
